Reference: ChEMBL document CHEMBL3885881, “DrugMatrix”

Species: Rattus norvegicus
Experiment: DrugMatrix - Regimen: Daily Repeat
Assay type: toxicity, organism-based, Sprague-Dawley
Set-up: regimen Daily Repeat, gender Male, age 6-8 weeks
Settings: in vivo, po, route oral GAVAGE, […]; for ABSOLUTE BASOPHIL / ABSOLUTE EOSINOPHIL / ABSOLUTE LYMPHOCYTE / ABSOLUTE MONOCYTE / ABSOLUTE SEGMENTED NEUTROPHIL / BASOPHIL / EOSINOPHIL / ERYTHROCYTE COUNT / HEMATOCRIT / HEMOGLOBIN / LEUKOCYTE COUNT / LYMPHOCYTE / MEAN CORPUSCULAR HEMOGLOBIN / MEAN CORPUSCULAR HEMOGLOBIN CONCENTRATION / MEAN CORPUSCULAR VOLUME / MONOCYTE / NEUTROPHIL / NUCLEATED RED BLOOD CELLS / PLATELET COUNT: tissue Blood; for ALANINE AMINOTRANSFERASE / ALBUMIN / ALKALINE PHOSPHATASE / ASPARTATE AMINOTRANSFERASE / BLOOD UREA NITROGEN / CARBON DIOXIDE / CHLORIDE / CHOLESTEROL / CREATINE PHOSPHOKINASE / CREATININE / GLUCOSE / LACTATE DEHYDROGENASE / LIPASE / PHOSPHORUS / POTASSIUM / SODIUM / TOTAL BILIRUBIN / TOTAL PROTEIN / URIC ACID: tissue Plasma
[1] = 100 mg/kg, 120 h, dose level M1, time 5 day
[2] = 610 mg/kg, 72 h, dose level High, time 3 day
[3] = 610 mg/kg, 120 h, dose level High, time 5 day

CC(C)(c1ccc(O)cc1)c1ccc(O)cc1 [BISPHENOL A]
ABSOLUTE BASOPHIL [1]: 0 CELLS/uL
ABSOLUTE EOSINOPHIL [1]: 0 CELLS/uL
ABSOLUTE LYMPHOCYTE [1]: 6683.33 CELLS/uL
ABSOLUTE MONOCYTE [1]: 63.33 CELLS/uL
ABSOLUTE SEGMENTED NEUTROPHIL [1]: 353.33 CELLS/uL
BASOPHIL [1]: 0%
EOSINOPHIL [1]: 0%
ERYTHROCYTE COUNT [1]: 5.4 x10E6/uL
HEMATOCRIT [1]: 32.4%
HEMOGLOBIN [1]: 12.83 G/DL
LEUKOCYTE COUNT [1]: 7.1 x10E3/uL
LYMPHOCYTE [1]: 94%
MEAN CORPUSCULAR HEMOGLOBIN [1]: 23.8 pg
MEAN CORPUSCULAR HEMOGLOBIN CONCENTRATION [1]: 39.63 G/DL
MEAN CORPUSCULAR VOLUME [1]: 59.87 fL
MONOCYTE [1]: 1%
NEUTROPHIL [1]: 5%
NUCLEATED RED BLOOD CELLS [1]: 0 /100WBC
PLATELET COUNT [1]: 1281.67 x10E3/uL
ALANINE AMINOTRANSFERASE [1]: 80.33 u/L
ALBUMIN [1]: 4.13 G/DL
ALKALINE PHOSPHATASE [1]: 398.67 u/L
ASPARTATE AMINOTRANSFERASE [1]: 90.33 u/L
BLOOD UREA NITROGEN [1]: 13.33 mg/dL
CARBON DIOXIDE [1]: 29.33 mmol/L
CHLORIDE [1]: 100.33 MEQ/L
CHOLESTEROL [1]: 54.67 mg/dL
CREATINE PHOSPHOKINASE [1]: 295 u/L
CREATININE [1]: 0.26 mg/dL
GLUCOSE [1]: 161 mg/dL
LACTATE DEHYDROGENASE [1]: 102.33 u/L
LIPASE [1]: 13.33 u/L
PHOSPHORUS [1]: 9.57 mg/dL
POTASSIUM [1]: 5.37 MEQ/L
SODIUM [1]: 144.17 MEQ/L
TOTAL BILIRUBIN [1]: 0.17 mg/dL
TOTAL PROTEIN [1]: 5.77 G/DL
URIC ACID [1]: 0.83 mg/dL
ABSOLUTE BASOPHIL [2]: 0 CELLS/uL
ABSOLUTE EOSINOPHIL [2]: 22.33 CELLS/uL
ABSOLUTE LYMPHOCYTE [2]: 6406 CELLS/uL
ABSOLUTE MONOCYTE [2]: 44.67 CELLS/uL
ABSOLUTE SEGMENTED NEUTROPHIL [2]: 760.33 CELLS/uL
BASOPHIL [2]: 0%
EOSINOPHIL [2]: 0.33%
ERYTHROCYTE COUNT [2]: 5.65 x10E6/uL
HEMATOCRIT [2]: 34.33%
HEMOGLOBIN [2]: 13.43 G/DL
LEUKOCYTE COUNT [2]: 7.23 x10E3/uL
LYMPHOCYTE [2]: 88.33%
MEAN CORPUSCULAR HEMOGLOBIN [2]: 23.77 pg
MEAN CORPUSCULAR HEMOGLOBIN CONCENTRATION [2]: 39.1 G/DL
MEAN CORPUSCULAR VOLUME [2]: 60.8 fL
MONOCYTE [2]: 0.67%
NEUTROPHIL [2]: 10.67%
NUCLEATED RED BLOOD CELLS [2]: 0.33 /100WBC
PLATELET COUNT [2]: 1156 x10E3/uL
ALANINE AMINOTRANSFERASE [2]: 84.33 u/L
ALBUMIN [2]: 3.93 G/DL
ALKALINE PHOSPHATASE [2]: 316.33 u/L
ASPARTATE AMINOTRANSFERASE [2]: 77.67 u/L
BLOOD UREA NITROGEN [2]: 15.67 mg/dL
CARBON DIOXIDE [2]: 31.33 mmol/L
CHLORIDE [2]: 100 MEQ/L
CHOLESTEROL [2]: 64.33 mg/dL
CREATINE PHOSPHOKINASE [2]: 263.67 u/L
CREATININE [2]: 0.18 mg/dL
GLUCOSE [2]: 157.33 mg/dL
LACTATE DEHYDROGENASE [2]: 115.67 u/L
LIPASE [2]: 10 u/L
PHOSPHORUS [2]: 10.37 mg/dL
POTASSIUM [2]: 5.53 MEQ/L
SODIUM [2]: 143.73 MEQ/L
TOTAL BILIRUBIN [2]: 0.27 mg/dL
TOTAL PROTEIN [2]: 5.73 G/DL
URIC ACID [2]: 0.7 mg/dL
ABSOLUTE BASOPHIL [3]: 0 CELLS/uL
ABSOLUTE EOSINOPHIL [3]: 0 CELLS/uL
ABSOLUTE LYMPHOCYTE [3]: 8347 CELLS/uL
ABSOLUTE MONOCYTE [3]: 82 CELLS/uL
ABSOLUTE SEGMENTED NEUTROPHIL [3]: 671 CELLS/uL
BASOPHIL [3]: 0%
EOSINOPHIL [3]: 0%
ERYTHROCYTE COUNT [3]: 5.73 x10E6/uL
HEMATOCRIT [3]: 35.8%
HEMOGLOBIN [3]: 14.07 G/DL
LEUKOCYTE COUNT [3]: 9.1 x10E3/uL
LYMPHOCYTE [3]: 91.67%
MEAN CORPUSCULAR HEMOGLOBIN [3]: 24.6 pg
MEAN CORPUSCULAR HEMOGLOBIN CONCENTRATION [3]: 39.3 G/DL
MEAN CORPUSCULAR VOLUME [3]: 62.63 fL
MONOCYTE [3]: 0.67%
NEUTROPHIL [3]: 7.67%
NUCLEATED RED BLOOD CELLS [3]: 0.33 /100WBC
PLATELET COUNT [3]: 1180 x10E3/uL
ALANINE AMINOTRANSFERASE [3]: 106.33 u/L
ALBUMIN [3]: 4.3 G/DL
ALKALINE PHOSPHATASE [3]: 452.33 u/L
ASPARTATE AMINOTRANSFERASE [3]: 135.67 u/L
BLOOD UREA NITROGEN [3]: 12 mg/dL
CARBON DIOXIDE [3]: 29 mmol/L
CHLORIDE [3]: 100.5 MEQ/L
CHOLESTEROL [3]: 60.33 mg/dL
CREATINE PHOSPHOKINASE [3]: 592 u/L
CREATININE [3]: 0.11 mg/dL
GLUCOSE [3]: 154 mg/dL
LACTATE DEHYDROGENASE [3]: 112 u/L
LIPASE [3]: 48.33 u/L
PHOSPHORUS [3]: 8.77 mg/dL
POTASSIUM [3]: 5.17 MEQ/L
SODIUM [3]: 144.95 MEQ/L
TOTAL BILIRUBIN [3]: 0.27 mg/dL
TOTAL PROTEIN [3]: 5.53 G/DL
URIC ACID [3]: 0.6 mg/dL
